According to ChEMBL document CHEMBL3885861, “Open TG-GATES”:

Species on record: Rattus norvegicus
Assay: Open TG-GATES - Regimen: Single
Type: toxicity, organism-based, Sprague-Dawley
Design: regimen Single, gender Male, age 6 weeks
Conditions: in vivo, po, route gavage; for APTT / Bas / Eos / Fbg / Hb / Ht / Lym / MCH / MCHC / MCV / Mono / Neu / PT / Plat / RBC / Ret / WBC: tissue Blood; for KIDNEY_L / KIDNEY_R / KIDNEY_TOTAL: tissue Kidney; for LIVER: tissue Liver; for A/G / ALP / ALT / AST / BUN / CRE / Ca / Cl / DBIL / GLC / IP / K / LDH / Na / PL / RALB / TBIL / TC / TG / TP / gamma-GTP: tissue Plasma
[1] = 100 mg/kg, 3 h, dose level Middle
[2] = 100 mg/kg, 6 h, dose level Middle
[3] = 100 mg/kg, 9 h, dose level Middle
[4] = 100 mg/kg, 24 h, dose level Middle
[5] = 300 mg/kg, 3 h, dose level High
[6] = 300 mg/kg, 6 h, dose level High
[7] = 300 mg/kg, 9 h, dose level High
[8] = 300 mg/kg, 24 h, dose level High

## CCOC(=O)C(C)(C)Oc1ccc(Cl)cc1 [CLOFIBRATE]
[1]
  TERMINAL_BW: 227.5 g
  APTT: 18.9 s
  Bas: 0%
  Eos: 1%
  Fbg: 231.4 mg/dL
  Hb: 13.6 g/dL
  Ht: 39%
  Lym: 76.6%
  MCH: 20.9 pg
  MCHC: 34.8%
  MCV: 60.1 fL
  Mono: 2.6%
  Neu: 19.2%
  PT: 12.3 s
  Plat: 126.5 x10_4/uL
  RBC: 649.6 x10_4/ul
  Ret: 7.1%
  WBC: 87.8 x10_2/uL
  KIDNEY_L: 1 g
  KIDNEY_R: 1 g
  KIDNEY_TOTAL: 1.9 g
  LIVER: 9.9 g
  A/G: 1.6
  ALP: 1012.4 IU/L
  ALT: 36.8 IU/L
  AST: 68.2 IU/L
  BUN: 10 mg/dL
  CRE: 0.3 mg/dL
  Ca: 10.7 mg/dL
  Cl: 102.6 meq/L
  DBIL: 0.2 mg/dL
  GLC: 201.6 mg/dL
  IP: 9 mg/dL
  K: 3.8 meq/L
  LDH: 203.6 IU/L
  Na: 139.6 meq/L
  PL: 157.6 mg/dL
  RALB: 3.5 g/dL
  TBIL: 0.3 mg/dL
  TC: 75.2 mg/dL
  TG: 121 mg/dL
  TP: 5.7 g/dL
  gamma-GTP: 0.4 IU/L
[2]
  TERMINAL_BW: 227.2 g
  APTT: 18.9 s
  Bas: 0%
  Eos: 1%
  Fbg: 232.6 mg/dL
  Hb: 13.7 g/dL
  Ht: 39.5%
  Lym: 79.6%
  MCH: 20.8 pg
  MCHC: 34.6%
  MCV: 60.1 fL
  Mono: 3.2%
  Neu: 16%
  PT: 12.5 s
  Plat: 132.6 x10_4/uL
  RBC: 657.6 x10_4/ul
  Ret: 7.3%
  WBC: 89.7 x10_2/uL
  KIDNEY_L: 1 g
  KIDNEY_R: 1 g
  KIDNEY_TOTAL: 2 g
  LIVER: 10.1 g
  A/G: 1.6
  ALP: 987.8 IU/L
  ALT: 29.8 IU/L
  AST: 62.8 IU/L
  BUN: 9.2 mg/dL
  CRE: 0.4 mg/dL
  Ca: 10.9 mg/dL
  Cl: 102.4 meq/L
  DBIL: 0.1 mg/dL
  GLC: 196.2 mg/dL
  IP: 9.4 mg/dL
  K: 4.2 meq/L
  LDH: 223.6 IU/L
  Na: 139 meq/L
  PL: 146.8 mg/dL
  RALB: 3.5 g/dL
  TBIL: 0.2 mg/dL
  TC: 73.8 mg/dL
  TG: 106.4 mg/dL
  TP: 5.7 g/dL
  gamma-GTP: 0.6 IU/L
[3]
  TERMINAL_BW: 222.9 g
  APTT: 17.6 s
  Bas: 0%
  Eos: 1%
  Fbg: 227.4 mg/dL
  Hb: 13.3 g/dL
  Ht: 38.2%
  Lym: 80.2%
  MCH: 21 pg
  MCHC: 34.8%
  MCV: 60.5 fL
  Mono: 1.8%
  Neu: 16.6%
  PT: 12.9 s
  Plat: 137.6 x10_4/uL
  RBC: 630.2 x10_4/ul
  Ret: 7.4%
  WBC: 82.1 x10_2/uL
  KIDNEY_L: 1 g
  KIDNEY_R: 1 g
  KIDNEY_TOTAL: 2.1 g
  LIVER: 9.6 g
  A/G: 1.6
  ALP: 1028.4 IU/L
  ALT: 26.6 IU/L
  AST: 59.4 IU/L
  BUN: 9.8 mg/dL
  CRE: 0.4 mg/dL
  Ca: 10.4 mg/dL
  Cl: 101.4 meq/L
  DBIL: 0.088 mg/dL
  GLC: 206.4 mg/dL
  IP: 10.3 mg/dL
  K: 3.5 meq/L
  LDH: 182.4 IU/L
  Na: 140.2 meq/L
  PL: 120.4 mg/dL
  RALB: 3.4 g/dL
  TBIL: 0.1 mg/dL
  TC: 59.4 mg/dL
  TG: 73 mg/dL
  TP: 5.6 g/dL
  gamma-GTP: 0.6 IU/L
[4]
  TERMINAL_BW: 236 g
  APTT: 19.1 s
  Bas: 0%
  Eos: 1%
  Fbg: 223.8 mg/dL
  Hb: 13.6 g/dL
  Ht: 38.9%
  Lym: 79.8%
  MCH: 21.4 pg
  MCHC: 34.9%
  MCV: 61.4 fL
  Mono: 3.2%
  Neu: 15.4%
  PT: 12.6 s
  Plat: 131 x10_4/uL
  RBC: 633.6 x10_4/ul
  Ret: 7%
  WBC: 93.4 x10_2/uL
  KIDNEY_L: 1 g
  KIDNEY_R: 1 g
  KIDNEY_TOTAL: 2 g
  LIVER: 12 g
  A/G: 1.6
  ALP: 871 IU/L
  ALT: 36 IU/L
  AST: 65.6 IU/L
  BUN: 14.8 mg/dL
  CRE: 0.4 mg/dL
  Ca: 10.9 mg/dL
  Cl: 100.8 meq/L
  DBIL: 0.088 mg/dL
  GLC: 202 mg/dL
  IP: 7.5 mg/dL
  K: 3.7 meq/L
  LDH: 219.2 IU/L
  Na: 139.6 meq/L
  PL: 134.2 mg/dL
  RALB: 3.4 g/dL
  TBIL: 0.1 mg/dL
  TC: 60.4 mg/dL
  TG: 106.4 mg/dL
  TP: 5.6 g/dL
  gamma-GTP: 1 IU/L
[5]
  TERMINAL_BW: 225.9 g
  APTT: 19.5 s
  Bas: 0%
  Eos: 1%
  Fbg: 231.2 mg/dL
  Hb: 13.5 g/dL
  Ht: 39.3%
  Lym: 78%
  MCH: 21.4 pg
  MCHC: 34.2%
  MCV: 62.5 fL
  Mono: 3%
  Neu: 17.2%
  PT: 12.5 s
  Plat: 127.2 x10_4/uL
  RBC: 629.6 x10_4/ul
  Ret: 7.9%
  WBC: 103.9 x10_2/uL
  KIDNEY_L: 1 g
  KIDNEY_R: 1 g
  KIDNEY_TOTAL: 2 g
  LIVER: 9.8 g
  A/G: 1.6
  ALP: 991.6 IU/L
  ALT: 41.8 IU/L
  AST: 73.2 IU/L
  BUN: 10.4 mg/dL
  CRE: 0.4 mg/dL
  Ca: 11 mg/dL
  Cl: 102.4 meq/L
  DBIL: 0.1 mg/dL
  GLC: 190 mg/dL
  IP: 9.4 mg/dL
  K: 3.6 meq/L
  LDH: 260.6 IU/L
  Na: 140.4 meq/L
  PL: 149.6 mg/dL
  RALB: 3.5 g/dL
  TBIL: 0.2 mg/dL
  TC: 73 mg/dL
  TG: 76.2 mg/dL
  TP: 5.6 g/dL
  gamma-GTP: 0.6 IU/L
[6]
  TERMINAL_BW: 227.7 g
  APTT: 18.2 s
  Bas: 0%
  Eos: 1%
  Fbg: 240.8 mg/dL
  Hb: 13.4 g/dL
  Ht: 38.8%
  Lym: 76.4%
  MCH: 21.1 pg
  MCHC: 34.5%
  MCV: 61.3 fL
  Mono: 3.2%
  Neu: 18.4%
  PT: 12.7 s
  Plat: 134.1 x10_4/uL
  RBC: 633.8 x10_4/ul
  Ret: 7.4%
  WBC: 83.7 x10_2/uL
  KIDNEY_L: 1 g
  KIDNEY_R: 1 g
  KIDNEY_TOTAL: 2 g
  LIVER: 9.5 g
  A/G: 1.6
  ALP: 1008 IU/L
  ALT: 35.8 IU/L
  AST: 74.4 IU/L
  BUN: 10.2 mg/dL
  CRE: 0.4 mg/dL
  Ca: 10.9 mg/dL
  Cl: 102.8 meq/L
  DBIL: 0.09 mg/dL
  GLC: 195.6 mg/dL
  IP: 9.5 mg/dL
  K: 4 meq/L
  LDH: 218.8 IU/L
  Na: 140.4 meq/L
  PL: 135 mg/dL
  RALB: 3.5 g/dL
  TBIL: 0.2 mg/dL
  TC: 71 mg/dL
  TG: 96.2 mg/dL
  TP: 5.7 g/dL
  gamma-GTP: 1.2 IU/L
[7]
  TERMINAL_BW: 229.4 g
  APTT: 18 s
  Bas: 0%
  Eos: 1%
  Fbg: 235.6 mg/dL
  Hb: 13.1 g/dL
  Ht: 38.1%
  Lym: 72.8%
  MCH: 21 pg
  MCHC: 34.5%
  MCV: 61 fL
  Mono: 2.8%
  Neu: 22.8%
  PT: 12.9 s
  Plat: 140.4 x10_4/uL
  RBC: 625.6 x10_4/ul
  Ret: 7.1%
  WBC: 69.9 x10_2/uL
  KIDNEY_L: 1 g
  KIDNEY_R: 1 g
  KIDNEY_TOTAL: 2 g
  LIVER: 9.4 g
  A/G: 1.5
  ALP: 1054.2 IU/L
  ALT: 33 IU/L
  AST: 70.4 IU/L
  BUN: 10.8 mg/dL
  CRE: 0.4 mg/dL
  Ca: 10.5 mg/dL
  Cl: 102.4 meq/L
  DBIL: 0.09 mg/dL
  GLC: 201 mg/dL
  IP: 10.3 mg/dL
  K: 3.7 meq/L
  LDH: 203.6 IU/L
  Na: 140.4 meq/L
  PL: 116 mg/dL
  RALB: 3.3 g/dL
  TBIL: 0.1 mg/dL
  TC: 53.8 mg/dL
  TG: 81.8 mg/dL
  TP: 5.5 g/dL
  gamma-GTP: 1 IU/L
[8]
  TERMINAL_BW: 236.8 g
  APTT: 19.3 s
  Bas: 0%
  Eos: 0.8%
  Fbg: 218.2 mg/dL
  Hb: 13.5 g/dL
  Ht: 38.6%
  Lym: 77.2%
  MCH: 21.2 pg
  MCHC: 34.9%
  MCV: 60.7 fL
  Mono: 4%
  Neu: 17.6%
  PT: 13.3 s
  Plat: 127.2 x10_4/uL
  RBC: 636.8 x10_4/ul
  Ret: 6.4%
  WBC: 102.9 x10_2/uL
  KIDNEY_L: 1 g
  KIDNEY_R: 1.1 g
  KIDNEY_TOTAL: 2.1 g
  LIVER: 12.3 g
  A/G: 1.7
  ALP: 1007.8 IU/L
  ALT: 38 IU/L
  AST: 79 IU/L
  BUN: 15.4 mg/dL
  CRE: 0.4 mg/dL
  Ca: 10.6 mg/dL
  Cl: 100.4 meq/L
  DBIL: 0.086 mg/dL
  GLC: 201.2 mg/dL
  IP: 7.5 mg/dL
  K: 3.8 meq/L
  LDH: 223.4 IU/L
  Na: 140 meq/L
  PL: 104.8 mg/dL
  RALB: 3.5 g/dL
  TBIL: 0.1 mg/dL
  TC: 43.6 mg/dL
  TG: 103.8 mg/dL
  TP: 5.5 g/dL
  gamma-GTP: 1.4 IU/L
